According to publication PMC12858467, “In vitro toxicokinetics and metabolic profiling of methoxycathinones and methylthiocathinones using human liver systems and hyphenated mass spectrometry” (Archives of Toxicology, 2025):
Read-outs that look alike come from different tables or passages of the source.

Key:
Format in all cases: in vitro ADME
[1] = In vitro plasma protein binding (ultrafiltration, Centrifree); conditions: human, pooled human blood plasma, 30 min, 37 °C, ultrafiltration
Procedure: PPB was investigated according to a previous study with minor modifications (Kroesen et al. [2025]). Fresh and pooled human blood plasma (450 µL) was spiked with 50 µL of a 5 µM methanolic solution of 4MeO-NE-BP, 4MeO-αP-BP, 4MeO-αP-VP, 4MeS-NE-BP, 4MeS-αP-BP, or 4MeS-αMor-PrP. The mixture was incubated for 30 min at 37 °C and with gentle shaking at 200 rpm. […] The Centrifree devices were centrifuged for 35 min at 1600 × g to obtain 100 µL of the ultrafiltrate (UF). […] Experiments were performed in quadruplicate. Fraction unbound (fu) and PPB were determined by comparing the area ratios of the compound and trimipramine-d3 as an internal standard in the UF and GA using the following equations:1 fu=peak area ratiocompoundUF/ISUF/peak area ratiocompoundGA/ISGA 2 PPB[\%]=1-fu∗100.

[2] = tested on: pooled human liver S9 fraction (pHLS9) and HepaRG cells; experiment: In vitro metabolism by pHLS9 and HepaRG cells (LC-HRMS/MS metabolite identification); conditions: 25 µM substrate
CYP2D6 = target: T1, CYP2D6 (Homo sapiens, UniProt P10635); experiment: Monooxygenases activity screening, CYP2D6; parameters: key to one-step metabolite detected in CYP2D6 incubation: +, detected; -, not detected; conditions: 30 min, 37 °C
T1 construct: purchased Discovery Life Sciences (Huntsville, LA, USA); host or cells: baculovirus-infected insect cells (microsomes, Supersomes)
Procedure: (§1) For incubations with CYP2A6 or CYP2C9, phosphate buffer was replaced with 90 mM Tris buffer, according to the manufacturer’s guideline. […] All incubations were done in duplicate and concentrations were fixed. Verapamil (25 µM) was incubated as a positive control.

CYP2E1 = target: T2, CYP2E1 (Homo sapiens, UniProt P05181); experiment: Monooxygenases activity screening, CYP2E1; parameters: key: +, detected; -, not detected; conditions: 30 min, 37 °C
T2 construct: purchased Discovery Life Sciences (Huntsville, LA, USA); host or cells: baculovirus-infected insect cells (microsomes, Supersomes)
Procedure: as §1

CYP2B6 = target: T3, CYP2B6 (Homo sapiens, UniProt P20813); experiment: Monooxygenases activity screening, CYP2B6; parameters: key: +, detected; -, not detected; conditions: 30 min, 37 °C
T3 construct: purchased Discovery Life Sciences (Huntsville, LA, USA); host or cells: baculovirus-infected insect cells (microsomes, Supersomes)
T3 sequence (P20813 1-491): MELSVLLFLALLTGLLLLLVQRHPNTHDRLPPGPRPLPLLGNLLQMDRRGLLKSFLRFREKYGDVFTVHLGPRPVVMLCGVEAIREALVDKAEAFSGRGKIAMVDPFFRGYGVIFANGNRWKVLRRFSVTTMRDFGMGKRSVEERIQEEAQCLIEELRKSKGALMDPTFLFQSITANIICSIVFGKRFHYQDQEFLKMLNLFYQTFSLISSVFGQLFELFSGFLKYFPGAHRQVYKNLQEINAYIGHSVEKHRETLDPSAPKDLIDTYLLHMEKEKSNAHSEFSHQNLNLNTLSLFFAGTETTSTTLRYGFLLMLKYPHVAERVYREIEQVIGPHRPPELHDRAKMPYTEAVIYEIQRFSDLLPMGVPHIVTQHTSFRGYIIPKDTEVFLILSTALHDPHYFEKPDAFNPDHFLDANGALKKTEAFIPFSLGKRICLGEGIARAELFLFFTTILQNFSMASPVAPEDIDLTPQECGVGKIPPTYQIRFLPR
Procedure: as §1

[3] = target: T4, flavin-containing monooxygenase 3 (FMO3) (Homo sapiens, UniProt P31513); experiment: Monooxygenases activity screening, FMO3; parameters: key: +, detected; -, not detected; conditions: 30 min, 37 °C
T4 construct: purchased Discovery Life Sciences (Huntsville, LA, USA); host or cells: baculovirus-infected insect cells (microsomes, Supersomes)
T4 sequence (P31513 1-532): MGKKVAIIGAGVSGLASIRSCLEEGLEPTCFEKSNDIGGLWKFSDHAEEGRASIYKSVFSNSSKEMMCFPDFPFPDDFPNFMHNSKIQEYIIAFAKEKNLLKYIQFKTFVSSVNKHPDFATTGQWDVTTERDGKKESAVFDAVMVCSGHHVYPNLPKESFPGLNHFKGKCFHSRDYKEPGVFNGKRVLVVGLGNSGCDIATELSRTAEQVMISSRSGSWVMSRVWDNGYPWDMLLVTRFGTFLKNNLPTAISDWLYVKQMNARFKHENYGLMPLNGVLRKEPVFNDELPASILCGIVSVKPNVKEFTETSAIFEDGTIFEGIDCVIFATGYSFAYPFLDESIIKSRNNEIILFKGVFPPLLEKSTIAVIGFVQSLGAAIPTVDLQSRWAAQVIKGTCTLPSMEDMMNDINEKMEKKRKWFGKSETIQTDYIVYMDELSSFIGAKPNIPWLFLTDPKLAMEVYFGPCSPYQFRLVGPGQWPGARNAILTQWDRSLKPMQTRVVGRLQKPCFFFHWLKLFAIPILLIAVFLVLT
Procedure: as §1

CYP2C19 = target: T5, CYP2C19 (Homo sapiens, UniProt P33261); experiment: Monooxygenases activity screening, CYP2C19; parameters: key: +, detected; -, not detected; conditions: 30 min, 37 °C
T5 construct: purchased Discovery Life Sciences (Huntsville, LA, USA); host or cells: baculovirus-infected insect cells (microsomes, Supersomes)
Procedure: as §1

CYP2C8 = target: T6, CYP2C8 (Homo sapiens, UniProt P10632); experiment: Monooxygenases activity screening, CYP2C8; parameters: key: +, detected; -, not detected; conditions: 30 min, 37 °C
T6 construct: purchased Discovery Life Sciences (Huntsville, LA, USA); host or cells: baculovirus-infected insect cells (microsomes, Supersomes)
T6 sequence (P10632 1-490): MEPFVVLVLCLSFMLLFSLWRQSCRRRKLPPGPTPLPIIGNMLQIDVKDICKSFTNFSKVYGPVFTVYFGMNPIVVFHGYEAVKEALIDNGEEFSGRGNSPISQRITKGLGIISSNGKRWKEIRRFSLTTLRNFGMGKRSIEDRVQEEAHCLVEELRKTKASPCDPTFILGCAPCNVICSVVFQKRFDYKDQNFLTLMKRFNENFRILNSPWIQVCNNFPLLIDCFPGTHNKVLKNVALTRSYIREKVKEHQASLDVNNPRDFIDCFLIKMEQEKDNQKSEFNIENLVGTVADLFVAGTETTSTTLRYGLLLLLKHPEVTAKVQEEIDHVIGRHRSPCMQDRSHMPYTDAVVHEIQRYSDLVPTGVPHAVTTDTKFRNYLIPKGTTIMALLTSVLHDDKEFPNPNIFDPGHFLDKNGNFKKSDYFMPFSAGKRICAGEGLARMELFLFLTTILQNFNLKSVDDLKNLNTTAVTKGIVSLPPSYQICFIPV
Procedure: as §1

CYP2A6 = target: T7, CYP2A6 (Homo sapiens, UniProt P11509); experiment: Monooxygenases activity screening, CYP2A6; parameters: key: +, detected; -, not detected; conditions: 30 min, 37 °C
T7 construct: purchased Discovery Life Sciences (Huntsville, LA, USA); host or cells: baculovirus-infected insect cells (microsomes, Supersomes)
T7 sequence (P11509 1-494): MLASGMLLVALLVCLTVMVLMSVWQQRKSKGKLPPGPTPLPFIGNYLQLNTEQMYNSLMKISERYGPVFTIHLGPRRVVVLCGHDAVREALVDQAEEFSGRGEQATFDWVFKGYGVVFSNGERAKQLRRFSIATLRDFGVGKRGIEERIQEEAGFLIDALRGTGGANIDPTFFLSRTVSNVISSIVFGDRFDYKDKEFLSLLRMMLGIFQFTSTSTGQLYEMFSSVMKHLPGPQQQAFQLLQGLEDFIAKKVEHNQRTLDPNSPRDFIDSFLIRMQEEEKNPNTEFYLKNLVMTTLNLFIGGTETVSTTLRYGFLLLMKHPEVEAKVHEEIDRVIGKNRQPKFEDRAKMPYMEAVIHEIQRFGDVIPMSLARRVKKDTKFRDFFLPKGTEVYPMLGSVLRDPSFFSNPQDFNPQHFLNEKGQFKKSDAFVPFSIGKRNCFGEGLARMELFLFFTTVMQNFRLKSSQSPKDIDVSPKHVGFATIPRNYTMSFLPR
Procedure: as §1

CYP3A5 = target: T8, CYP3A5 (Homo sapiens, UniProt P20815); experiment: Monooxygenases activity screening, CYP3A5; parameters: key: +, detected; -, not detected; conditions: 30 min, 37 °C
T8 construct: purchased Discovery Life Sciences (Huntsville, LA, USA); host or cells: baculovirus-infected insect cells (microsomes, Supersomes)
Procedure: as §1

CYP1A2 = target: T9, CYP1A2 (Homo sapiens, UniProt P05177); experiment: Monooxygenases activity screening, CYP1A2; parameters: key: +, detected; -, not detected; conditions: 30 min, 37 °C
T9 construct: purchased Discovery Life Sciences (Huntsville, LA, USA); host or cells: baculovirus-infected insect cells (microsomes, Supersomes)
T9 sequence (P05177 1-516): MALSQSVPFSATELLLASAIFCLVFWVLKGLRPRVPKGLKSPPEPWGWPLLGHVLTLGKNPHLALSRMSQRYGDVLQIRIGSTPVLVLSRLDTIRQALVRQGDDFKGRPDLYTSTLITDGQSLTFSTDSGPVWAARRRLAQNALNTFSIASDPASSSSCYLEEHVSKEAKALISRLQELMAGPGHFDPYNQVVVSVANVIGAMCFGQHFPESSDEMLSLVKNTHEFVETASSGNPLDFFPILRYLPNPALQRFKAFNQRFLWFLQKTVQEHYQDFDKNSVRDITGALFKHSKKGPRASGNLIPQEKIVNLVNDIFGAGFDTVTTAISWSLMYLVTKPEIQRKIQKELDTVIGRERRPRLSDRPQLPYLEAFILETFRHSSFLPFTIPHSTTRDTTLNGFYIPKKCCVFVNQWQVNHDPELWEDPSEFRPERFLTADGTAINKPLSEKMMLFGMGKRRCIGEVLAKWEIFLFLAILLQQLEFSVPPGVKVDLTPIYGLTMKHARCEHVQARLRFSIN
Procedure: as §1

CYP2C9 = target: T10, CYP2C9 (Homo sapiens, UniProt P11712); experiment: Monooxygenases activity screening, CYP2C9; parameters: key: +, detected; -, not detected; conditions: 30 min, 37 °C
T10 construct: purchased Discovery Life Sciences (Huntsville, LA, USA); host or cells: baculovirus-infected insect cells (microsomes, Supersomes)
Procedure: as §1

CYP3A4 = target: T11, CYP3A4 (Homo sapiens, UniProt P08684); experiment: Monooxygenases activity screening, CYP3A4; parameters: key: +, detected; -, not detected; conditions: 30 min, 37 °C
T11 construct: purchased Discovery Life Sciences (Huntsville, LA, USA); host or cells: baculovirus-infected insect cells (microsomes, Supersomes)
Procedure: as §1

[4] = substrate 4MeS-αP-BP 25 µM, Table S3.5
[5] = substrate 4MeS-αMor-PrP 25 µM, Table S3.6

T11 sequence (P08684 whole entry): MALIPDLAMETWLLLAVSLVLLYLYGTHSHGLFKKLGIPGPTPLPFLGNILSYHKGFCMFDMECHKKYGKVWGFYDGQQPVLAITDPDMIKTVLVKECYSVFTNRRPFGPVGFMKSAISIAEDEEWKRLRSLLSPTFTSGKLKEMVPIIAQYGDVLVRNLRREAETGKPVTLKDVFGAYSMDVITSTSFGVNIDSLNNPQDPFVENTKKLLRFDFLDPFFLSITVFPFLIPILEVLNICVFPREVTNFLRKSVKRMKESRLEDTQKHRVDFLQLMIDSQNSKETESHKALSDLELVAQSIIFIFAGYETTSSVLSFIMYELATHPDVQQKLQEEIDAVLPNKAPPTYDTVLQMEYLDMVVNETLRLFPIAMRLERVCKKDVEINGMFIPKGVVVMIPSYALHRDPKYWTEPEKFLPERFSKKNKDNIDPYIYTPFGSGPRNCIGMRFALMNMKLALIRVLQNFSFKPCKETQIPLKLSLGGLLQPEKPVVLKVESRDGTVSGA
T1 sequence (P10635 whole entry): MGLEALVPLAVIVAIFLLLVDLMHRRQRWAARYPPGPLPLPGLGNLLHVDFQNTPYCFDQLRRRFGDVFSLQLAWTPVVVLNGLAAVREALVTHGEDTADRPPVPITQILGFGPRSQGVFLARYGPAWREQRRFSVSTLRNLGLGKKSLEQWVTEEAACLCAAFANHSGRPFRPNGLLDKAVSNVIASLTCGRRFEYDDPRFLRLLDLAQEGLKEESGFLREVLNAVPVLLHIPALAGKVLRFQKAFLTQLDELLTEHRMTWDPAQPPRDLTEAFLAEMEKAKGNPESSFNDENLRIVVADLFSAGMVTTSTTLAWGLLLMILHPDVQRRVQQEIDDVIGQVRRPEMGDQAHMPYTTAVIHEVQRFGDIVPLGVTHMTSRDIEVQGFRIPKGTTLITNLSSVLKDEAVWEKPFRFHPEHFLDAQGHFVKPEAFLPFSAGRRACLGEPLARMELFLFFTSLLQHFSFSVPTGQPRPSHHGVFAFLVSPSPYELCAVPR
T8 sequence (P20815 whole entry): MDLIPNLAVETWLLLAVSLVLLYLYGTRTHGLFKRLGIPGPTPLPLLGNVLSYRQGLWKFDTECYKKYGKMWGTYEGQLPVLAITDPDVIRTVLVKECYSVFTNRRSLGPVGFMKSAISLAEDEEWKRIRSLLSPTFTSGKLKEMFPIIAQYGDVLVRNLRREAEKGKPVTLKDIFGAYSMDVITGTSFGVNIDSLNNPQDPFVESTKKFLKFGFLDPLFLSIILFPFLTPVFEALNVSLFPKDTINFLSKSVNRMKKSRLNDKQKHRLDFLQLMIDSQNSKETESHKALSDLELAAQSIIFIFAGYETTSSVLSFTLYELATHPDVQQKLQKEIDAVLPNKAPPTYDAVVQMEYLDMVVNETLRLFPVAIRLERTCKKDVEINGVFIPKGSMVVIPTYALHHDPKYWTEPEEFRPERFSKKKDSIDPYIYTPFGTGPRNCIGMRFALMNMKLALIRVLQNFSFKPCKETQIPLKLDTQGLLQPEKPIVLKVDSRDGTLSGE
T10 sequence (P11712 whole entry): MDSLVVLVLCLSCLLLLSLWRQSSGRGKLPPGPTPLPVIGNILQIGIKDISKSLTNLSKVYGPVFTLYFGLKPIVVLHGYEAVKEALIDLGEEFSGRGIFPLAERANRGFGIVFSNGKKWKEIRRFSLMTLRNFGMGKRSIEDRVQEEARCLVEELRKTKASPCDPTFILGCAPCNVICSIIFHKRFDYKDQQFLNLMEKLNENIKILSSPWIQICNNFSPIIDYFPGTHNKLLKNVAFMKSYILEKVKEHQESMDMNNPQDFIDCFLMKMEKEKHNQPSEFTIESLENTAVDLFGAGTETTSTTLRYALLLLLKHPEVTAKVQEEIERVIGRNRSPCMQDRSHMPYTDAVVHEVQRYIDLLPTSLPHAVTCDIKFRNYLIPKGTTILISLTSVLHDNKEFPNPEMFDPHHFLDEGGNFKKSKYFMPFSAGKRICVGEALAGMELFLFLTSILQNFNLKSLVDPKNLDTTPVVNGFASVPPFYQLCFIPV
T2 sequence (P05181 whole entry): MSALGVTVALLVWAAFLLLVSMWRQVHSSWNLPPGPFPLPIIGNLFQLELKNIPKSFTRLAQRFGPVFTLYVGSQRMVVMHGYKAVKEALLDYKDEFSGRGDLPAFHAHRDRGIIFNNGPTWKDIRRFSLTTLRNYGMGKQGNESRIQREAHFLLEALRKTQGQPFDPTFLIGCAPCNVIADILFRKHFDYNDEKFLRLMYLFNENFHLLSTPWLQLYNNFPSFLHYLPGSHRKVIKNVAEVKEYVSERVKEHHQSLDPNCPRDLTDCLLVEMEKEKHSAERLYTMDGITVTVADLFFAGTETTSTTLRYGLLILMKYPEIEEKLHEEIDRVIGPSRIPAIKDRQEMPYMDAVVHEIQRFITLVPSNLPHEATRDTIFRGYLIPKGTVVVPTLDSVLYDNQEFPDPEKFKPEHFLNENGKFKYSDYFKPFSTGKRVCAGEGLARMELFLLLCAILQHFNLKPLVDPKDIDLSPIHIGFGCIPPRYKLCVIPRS
T5 sequence (P33261 whole entry): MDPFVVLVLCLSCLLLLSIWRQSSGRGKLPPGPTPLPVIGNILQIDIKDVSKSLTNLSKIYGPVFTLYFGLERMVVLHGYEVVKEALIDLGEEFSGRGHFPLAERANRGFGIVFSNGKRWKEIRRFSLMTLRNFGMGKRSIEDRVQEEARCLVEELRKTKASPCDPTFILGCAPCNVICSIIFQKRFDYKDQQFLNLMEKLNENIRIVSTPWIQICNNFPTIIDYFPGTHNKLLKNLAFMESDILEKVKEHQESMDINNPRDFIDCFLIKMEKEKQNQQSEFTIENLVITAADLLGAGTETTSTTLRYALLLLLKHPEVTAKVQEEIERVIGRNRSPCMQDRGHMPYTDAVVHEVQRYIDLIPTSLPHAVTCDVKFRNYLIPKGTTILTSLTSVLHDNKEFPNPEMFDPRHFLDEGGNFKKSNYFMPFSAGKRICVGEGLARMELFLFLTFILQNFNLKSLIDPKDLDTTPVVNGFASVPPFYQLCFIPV

CCC(C(=O)c1ccc(SC)cc1)N1CCCC1 (stereo not drawn) [Compound 4MeS-αP-BP, 4’-methylthio-α-pyrrolidinobutyrophenone]
fraction unbound at 30 min, 0.5 µM ([1]; read-out: PPB, % (converted)): 0.16 | fraction unbound at 30 min, 0.5 µM ([1]; read-out: fu (unbound fraction)): 0.16 | metabolic reactions (metabolite IDs) identified [2]: S-demethylation (MT2.1), hydroxylation (MT2.2), N-oxidation (MT2.3), lactam formation (MT2.4), N,N-bis-dealkylation (MT2.5), dihydroxylation (MT2.6), S-demethylation + hydroxylation (MT2.7), and N-oxidation + hydroxylation (MT2.8) | number of metabolites tentatively identified [2]: 8 | S-demethylation, only mediated by one CYP isoform (CYP2D6; 25 µM): CYP2D6

CCC(C(=O)c1ccc(S)cc1)N1CCCC1 (centres unmarked) [MT2.1]
one-step metabolite detected in CYP2E1 incubation (CYP2E1; [4]): - | one-step metabolite detected in CYP2B6 incubation (CYP2B6; [4]): - | one-step metabolite detected in FMO3 incubation [3, 4]: - | one-step metabolite detected in CYP2C19 incubation (CYP2C19; [4]): - | one-step metabolite detected in CYP2C8 incubation (CYP2C8; [4]): - | one-step metabolite detected in CYP2A6 incubation (CYP2A6; [4]): - | one-step metabolite detected in CYP3A5 incubation (CYP3A5; [4]): - | one-step metabolite detected in CYP1A2 incubation (CYP1A2; [4]): - | one-step metabolite detected in CYP2C9 incubation (CYP2C9; [4]): - | one-step metabolite detected in CYP2D6 incubation (CYP2D6; [4]): + | one-step metabolite detected in CYP3A4 incubation (CYP3A4; [4]): -

CC(C(=O)c1ccc(S)cc1)N1CCOCC1 (centres unmarked) [MT3.1]
one-step metabolite detected in CYP2E1 incubation (CYP2E1; [5]): - | one-step metabolite detected in CYP2B6 incubation (CYP2B6; [5]): + | one-step metabolite detected in FMO3 incubation [3, 5]: - | one-step metabolite detected in CYP2C19 incubation (CYP2C19; [5]): + | one-step metabolite detected in CYP2C8 incubation (CYP2C8; [5]): + | one-step metabolite detected in CYP2A6 incubation (CYP2A6; [5]): - | one-step metabolite detected in CYP3A5 incubation (CYP3A5; [5]): + | one-step metabolite detected in CYP1A2 incubation (CYP1A2; [5]): + | one-step metabolite detected in CYP2C9 incubation (CYP2C9; [5]): - | one-step metabolite detected in CYP2D6 incubation (CYP2D6; [5]): + | one-step metabolite detected in CYP3A4 incubation (CYP3A4; [5]): +

CSc1ccc(C(=O)C(C)[N+]2([O-])CCOCC2)cc1 (centres unmarked) [MT3.3]
one-step metabolite detected in CYP2E1 incubation (CYP2E1; [5]): - | one-step metabolite detected in CYP2B6 incubation (CYP2B6; [5]): - | one-step metabolite detected in FMO3 incubation [3, 5]: + | one-step metabolite detected in CYP2C19 incubation (CYP2C19; [5]): - | one-step metabolite detected in CYP2C8 incubation (CYP2C8; [5]): - | one-step metabolite detected in CYP2A6 incubation (CYP2A6; [5]): + | one-step metabolite detected in CYP3A5 incubation (CYP3A5; [5]): - | one-step metabolite detected in CYP1A2 incubation (CYP1A2; [5]): - | one-step metabolite detected in CYP2C9 incubation (CYP2C9; [5]): - | one-step metabolite detected in CYP2D6 incubation (CYP2D6; [5]): - | one-step metabolite detected in CYP3A4 incubation (CYP3A4; [5]): -
